A value given as a limit tells only on which side of the number the result lay.

One may read the IC50 as the concentration needed to halve the response being measured.

The target in the test is H1047R PIK3CA enzyme (Homo sapiens, UniProt P42336, H1047R). The experiment in a line: ADP-Glo Biochemical PIK3CA Kinase Assay. (In general: ADP-Glo turns the ADP formed in a reaction into a luminescent signal.)
Sequence of H1047R PIK3CA enzyme (P42336 whole entry H1047R): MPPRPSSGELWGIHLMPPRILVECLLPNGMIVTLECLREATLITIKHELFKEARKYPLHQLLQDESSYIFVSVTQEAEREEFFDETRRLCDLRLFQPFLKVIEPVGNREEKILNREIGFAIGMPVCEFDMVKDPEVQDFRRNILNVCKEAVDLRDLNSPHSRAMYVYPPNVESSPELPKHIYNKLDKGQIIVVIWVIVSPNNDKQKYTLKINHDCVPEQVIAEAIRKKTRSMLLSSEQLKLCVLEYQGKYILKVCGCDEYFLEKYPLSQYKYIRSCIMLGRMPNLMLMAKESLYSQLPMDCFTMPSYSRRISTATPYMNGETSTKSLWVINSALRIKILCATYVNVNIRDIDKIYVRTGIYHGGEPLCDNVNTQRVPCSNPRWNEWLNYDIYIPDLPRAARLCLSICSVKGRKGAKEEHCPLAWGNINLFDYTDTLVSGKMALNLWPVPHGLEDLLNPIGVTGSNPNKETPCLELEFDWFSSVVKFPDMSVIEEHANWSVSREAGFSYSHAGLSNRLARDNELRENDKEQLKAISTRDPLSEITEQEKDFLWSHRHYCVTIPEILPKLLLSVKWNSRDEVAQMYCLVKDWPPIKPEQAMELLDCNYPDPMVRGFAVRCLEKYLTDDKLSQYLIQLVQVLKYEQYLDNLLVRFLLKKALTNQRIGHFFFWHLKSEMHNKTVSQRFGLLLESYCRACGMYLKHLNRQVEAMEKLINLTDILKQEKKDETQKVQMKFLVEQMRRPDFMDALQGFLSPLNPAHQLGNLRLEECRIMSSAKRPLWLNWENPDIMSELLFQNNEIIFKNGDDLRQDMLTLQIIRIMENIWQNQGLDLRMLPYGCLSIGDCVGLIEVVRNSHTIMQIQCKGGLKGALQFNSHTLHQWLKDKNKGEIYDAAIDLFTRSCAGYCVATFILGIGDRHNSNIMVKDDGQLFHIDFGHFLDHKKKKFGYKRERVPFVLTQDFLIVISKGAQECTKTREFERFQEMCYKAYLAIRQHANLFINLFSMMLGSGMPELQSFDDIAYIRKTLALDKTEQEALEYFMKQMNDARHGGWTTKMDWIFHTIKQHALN
Sequence of H1047R PIK3CA enzyme (P27986 whole entry partner): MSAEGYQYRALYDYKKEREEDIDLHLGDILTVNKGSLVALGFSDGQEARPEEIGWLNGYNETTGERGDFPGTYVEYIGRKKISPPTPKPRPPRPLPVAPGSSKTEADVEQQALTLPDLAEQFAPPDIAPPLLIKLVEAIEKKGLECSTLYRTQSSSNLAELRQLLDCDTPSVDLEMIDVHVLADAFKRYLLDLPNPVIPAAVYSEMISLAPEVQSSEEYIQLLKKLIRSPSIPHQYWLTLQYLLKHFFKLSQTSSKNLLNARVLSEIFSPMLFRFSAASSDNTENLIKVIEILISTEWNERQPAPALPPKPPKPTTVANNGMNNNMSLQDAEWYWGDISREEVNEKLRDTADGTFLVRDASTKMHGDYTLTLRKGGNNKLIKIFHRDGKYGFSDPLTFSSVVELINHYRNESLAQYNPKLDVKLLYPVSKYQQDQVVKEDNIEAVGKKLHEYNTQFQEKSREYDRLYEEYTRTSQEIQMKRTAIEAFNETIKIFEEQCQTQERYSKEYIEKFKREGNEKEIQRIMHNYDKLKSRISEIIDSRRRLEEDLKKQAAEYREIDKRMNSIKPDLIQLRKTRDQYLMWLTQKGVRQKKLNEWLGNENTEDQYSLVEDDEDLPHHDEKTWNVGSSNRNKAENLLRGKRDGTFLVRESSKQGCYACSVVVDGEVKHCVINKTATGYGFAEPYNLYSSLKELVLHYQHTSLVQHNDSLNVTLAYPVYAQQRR
`NC(=O)c1cnccc1-c1cc(NC(=O)c2cc(F)cc(Cl)c2)c2c(n1)C(=O)NC2c1cc(F)ccc1Cl` (stereo not shown) [Compound I-507] showed an IC50 of 1000 to 10000 nM.
To `O=C1N[C@H](c2cc(F)ccc2Cl)c2c(NC(=O)N3C[C@@H](O)c4ccccc43)cc(-c3ccc4ncnn4c3)cc21` (single isomer, unassigned) [Compound I-1579] belongs 500 to 1000 nM; to `O=C(Nc1cc(-c2cnc3ncc(Cl)n3c2)cc2c1C(c1cc(F)ccc1Cl)NC2=O)c1cc(F)cc(C(F)(F)F)c1` (stereo not shown) [Compound I-1934], no more than 100 nM.
To `O=C1N[C@@H](c2cc(F)ccc2Cl)c2c(NC(=O)N3C[C@H](O)c4cc(F)ccc43)cc(-n3ccnn3)cc21` (single isomer, unassigned) [Compound I-2368] belongs 1000 to 10000 nM.
As to `O=C(Nc1cc(-c2cnc(C(F)(F)F)nc2)cc2c1C(c1cc(F)ccc1Cl)NC2=O)c1cc(F)cc(C(F)(F)F)c1` (stereo not shown) [Compound I-823], the IC50 was no more than 100 nM.
`CNC(=O)c1cc(NC(=O)c2cc(F)cc(C(F)(F)F)c2)c2c(c1)c(=O)[nH]n2-c1cc(F)ccc1Cl` [Compound I-808] had a concentration for half-maximal inhibition (IC50) of 1000 to 10000 nM.
The same measure for `C[C@@H](c1nn[nH]c1C(=O)Nc1cccc2c1[C@@H](c1cc(F)ccc1Cl)NC2=O)C(F)(F)F` (single isomer, unassigned) [Compound I-2270]: 10000 to 100000 nM.
To `O=C(Nc1cc(OCC(F)F)cc2c1[C@H](c1cc(F)ccc1Cl)NC2=O)c1cc(F)cc(C(F)(F)F)c1` [Compound I-2062] belongs no more than 100 nM.
Consider `O=C(Nc1cc(Br)cc2c1C(c1cc(F)ccc1Cl)NC2=O)c1cc(F)cc([N+](=O)[O-])c1` (stereo not shown) [Compound I-832], for which the IC50 was no more than 100 nM.
The same measure for `O=C(Nc1cccc(C(F)(F)F)c1)c1cccc2c1C(c1cc(F)ccc1Cl)NC2=O` (stereo not shown) [Compound I-2189]: 1000 to 10000 nM.
To `CN1C(=O)CC[C@@H]1COc1cc(NC(=O)c2cc(F)cc(C(F)(F)F)c2)c2c(c1)C(=O)N[C@H]2c1cc(F)ccc1Cl` (single isomer, unassigned) [Compound I-1567] belongs no more than 100 nM; to `NC1CN(C(=O)Nc2cc(Br)cc3c2C(c2cc(F)ccc2Cl)NC3=O)c2ccccc21` (stereo not shown) [Compound I-2042], 1000 to 10000 nM.
The same measure for `O=C(Nc1cc(N2CCn3ccnc3C2)cc2c1C(c1cc(F)ccc1Cl)NC2=O)c1cc(F)cc(C(F)(F)F)c1` (stereo not shown) [Compound I-1236]: no more than 100 nM; for `O=C(Nc1cccc2c1C(C1CNC1)NC2=O)c1cc(F)cc(C(F)(F)F)c1` (stereo not shown) [Compound I-1833]: 10000 to 100000 nM.
For the compound `O=C(Nc1cc(-c2cccnc2)cc2c1C(c1cc(F)ccc1Cl)NC2=O)c1cc(F)cc(C(F)(F)F)c1` (stereo not shown) [Compound I-888], the IC50 is no more than 100 nM.
`Cc1ccccc1C1NC(=O)c2cc(CN)cc(NC(=O)c3cc(F)cc(C(F)(F)F)c3)c21` (stereo not shown) [Compound I-260] showed a concentration for half-maximal inhibition (IC50) of 100 to 500 nM.
In the case of `O=C(Nc1cccc2c1[C@@H](NC1CCCC1)NC2=O)c1cc(F)cc(C(F)(F)F)c1` (single isomer, unassigned) [Compound I-2249], the IC50 fell in the range of 10000 to 100000 nM.
In the case of `CNC(=O)c1cc(NC(=O)c2cc(F)cc(C(F)(F)F)c2)c2c(c1)C(=O)N[C@@H]2c1ccccc1C` [Compound I-211], the IC50 lay in the range of 10000 to 100000 nM.
Compound `Cn1cc(-c2cc(NC(=O)c3cc(F)cc(C(F)(F)F)c3)c3c(n2)C(=O)NC3c2cc(F)ccc2Cl)ccc1=O` (stereo not shown) [Compound I-547] yielded an IC50 of no more than 100 nM.
Compound `O=C(Nc1ccccc1)Nc1cc(Br)cc2c1[C@@H](c1cc(F)ccc1Cl)NC2=O` (stereo in doubt) [Compound I-1946] showed an IC50 of 1000 to 10000 nM.
The same measure for `O=C1N[C@H](c2cc(F)ccc2Cl)c2c(NC(=O)N3C[C@@](O)(C(F)(F)F)c4ccccc43)cc(Cl)cc21` (single isomer, unassigned) [Compound I-2506]: 1000 to 10000 nM.
The same measure for `CC(C)n1cc(-c2cc(NC(=O)c3cc(F)cc(C(F)(F)F)c3)c3c(n2)C(=O)N[C@@H]3c2cc(F)ccc2Cl)ccc1=O` [Compound I-650]: 500 to 1000 nM.
The same measure for `O=C(Nc1ccc(F)cc1F)Nc1ccnc2c1C(c1ccccc1Cl)NC2=O` (stereo not shown) [Compound I-245]: 1000 to 10000 nM.
Compound `O=C(Nc1cc(-c2cnn(C(F)F)c2)cc2c1C(c1cc(F)cc(F)c1)NC2=O)c1cc(F)cc(F)c1` (stereo not shown) [Compound I-2161] registered an IC50 of 100 to 500 nM.
The compound `NCCc1cc(NC(=O)N2C[C@H](O)c3cc(F)ccc32)c2c(c1)C(=O)N[C@H]2c1cc(F)ccc1Cl` (single isomer, unassigned) [Compound I-2445] returned an IC50 of 1000 to 10000 nM.
The same measure for `O=C1N[C@H](c2cc(F)ccc2Cl)c2c(NC(=O)N3C[C@](O)(C(F)(F)F)c4cc(F)ccc43)cc(Cl)nc21` (single isomer, unassigned) [Compound I-2702]: 1000 to 10000 nM; for `O=C1N[C@@H](c2ccccc2Cl)c2c(NC(=O)N3C[C@](O)(C(F)(F)F)c4cc(F)ccc43)cccc21` (single isomer, unassigned) [Compound I-2686]: 10000 to 100000 nM; for `Cn1nccc1C(O)c1cc(NC(=O)c2cc(F)cc(C(F)(F)F)c2)c2c(c1)C(=O)NC2c1cc(F)ccc1Cl` (stereo not shown) [Compound I-1389]: no more than 100 nM.
To `COc1c(F)cc(Cl)cc1C(=O)Nc1cc(Br)cc2c1C(c1cc(F)ccc1Cl)NC2=O` (stereo not shown) [Compound I-858] belongs 1000 to 10000 nM.
`NC1CCC(C(=O)Nc2cc(-c3ccc4ncnn4c3)cc3c2C(c2cc(F)ccc2Cl)NC3=O)CC1` (stereo not shown) [Compound I-1759] showed an IC50 of 10000 to 100000 nM.
Take `O=C(Nc1cc(C2CCCO2)cc2c1C(c1cc(F)ccc1Cl)NC2=O)c1cc(F)cc(C(F)(F)F)c1` (stereo not shown) [Compound I-364]: the IC50 is no more than 100 nM.
For `O=C1N[C@@H](c2cc(F)ccc2Cl)c2c(NC(=O)N3C[C@@](O)(C(F)(F)F)c4cc(F)ccc43)ccc(-n3ccnn3)c21` (single isomer, unassigned) [Compound I-2523], the IC50 was 1000 to 10000 nM.
In the case of `O=C(Nc1cc(-c2ccc(=O)n(C3CC3)c2)cc2c1C(c1cc(F)ccc1Cl)NC2=O)c1cc(F)cc(C(F)(F)F)c1` (stereo not shown) [Compound I-700], the half-maximal inhibitory concentration (IC50) was no more than 100 nM.
To `Cc1ccccc1C1NC(=O)c2c(C)ccc(NC(=O)c3csc4ccccc34)c21` (stereo not shown) [Compound I-153, N-(7-Methyl-1-oxo-3-(o-tolyl)isoindolin-4-yl)benzo[b]thiophene-3-carboxamide] belongs 100 to 500 nM.
To `C[C@H](C#N)n1cc(-c2cc(NC(=O)c3cc(F)cc(C(F)(F)F)c3)c3c(c2)C(=O)N[C@H]3c2cc(F)ccc2Cl)cn1` (single isomer, unassigned) [Compound I-1916] belongs no more than 100 nM; to `O=C(Nc1cc(Br)cc2c1C(c1cc(F)ccc1Cl)NC2=O)c1cc(Cl)cc2c1NCCO2` (stereo not shown) [Compound I-1242], 1000 to 10000 nM; to `Cc1ccccc1C1NC(=O)c2cc([C@@H](C)N)cc(NC(=O)c3csc4ccccc34)c21` (mixture of isomers) [Compound I-90], no more than 100 nM.
`C[C@@H](O)c1cc(-c2ccc3ncnn3c2)cc2c1[C@H](c1cc(F)ccc1Cl)NC2=O` (single isomer, unassigned) [Compound I-2231] had an IC50 of 10000 to 100000 nM.
The same measure for `O=C1NC(c2cc(F)ccc2Cl)c2c(NC(=O)C3COCCO3)cc(-c3ccc4ncnn4c3)cc21` (stereo not shown) [Compound I-1910]: 10000 to 100000 nM; for `CC[C@@]1(O)CN(C(=O)Nc2cccc3c2[C@H](c2cc(F)ccc2Cl)NC3=O)c2ccc(F)cc21` (single isomer, unassigned) [Compound I-2463]: 1000 to 10000 nM; for `[2H]c1nc2cnc(-c3cc(NC(=O)c4cc(F)cc(C(F)(F)F)c4)c4c(c3)C(=O)N[C@H]4c3cc(F)ccc3Cl)cn2n1` [Compound I-2069]: no more than 100 nM.
To `O=C(Nc1cc(NC2=NCC3(CC3)O2)cc2c1C(c1cc(F)ccc1Cl)NC2=O)c1cc(F)cc(C(F)(F)F)c1` (stereo not shown) [Compound I-2327] belongs 100 to 500 nM.
Compound `O=C1NC(c2cc(F)ccc2Cl)c2c(NC(=O)C3CCCOC3)cc(-c3ccc4ncnn4c3)cc21` (stereo not shown) [Compound I-1814] yielded an IC50 of 10000 to 100000 nM.
Turning to `CCC[C@]1(O)CN(C(=O)Nc2cccc3c2[C@H](c2cc(F)ccc2Cl)NC3=O)c2ccc(F)cc21` (single isomer, unassigned) [Compound I-2458], the IC50 was in the range of 1000 to 10000 nM.
With `O=C(Nc1cccc2c1C(C1=C(F)CCCC1)NC2=O)c1cc(F)cc(C(F)(F)F)c1` (racemic) [Compound I-1790], the IC50 is 500 to 1000 nM.
The same measure for `O=C1N[C@@H](c2cc(F)ccc2Cl)c2c(NC(=O)N3C[C@](O)(C(F)(F)F)c4ccccc43)cc(Cl)cc21` (single isomer, unassigned) [Compound I-2507]: 1000 to 10000 nM; for `O=C1N[C@H](c2cc(F)ccc2Cl)c2c(NC(=O)[C@H]3C[C@H](O)C[C@@H](C(F)(F)F)C3)cc(Br)cc21` (single isomer, unassigned) [Compound I-2150]: 1000 to 10000 nM.
`CC(=O)N1CCC[C@@H](Oc2cc(NC(=O)c3cc(F)cc(C(F)(F)F)c3)c3c(c2)C(=O)NC3c2cc(F)ccc2Cl)C1` (single isomer, unassigned) [Compound I-1431]: the half-maximal inhibitory concentration (IC50) is no more than 100 nM.
Compound `Cn1nc2ccccc2c1Nc1cc(-c2ccc3ncnn3c2)cc2c1C(c1cc(F)ccc1Cl)NC2=O` (stereo not shown) [Compound I-1841] displayed an IC50 of 10000 to 100000 nM.
To `C[C@@]1(C(=O)Nc2cc(Br)cc3c2[C@@H](c2cc(F)ccc2Cl)NC3=O)CCC[C@H](C(F)(F)F)C1` (single isomer, unassigned) [Compound I-2260] belongs 500 to 1000 nM; to `COc1cc(NC(=O)c2cc(F)cc(C(F)(F)F)c2)c2c(c1)C(=O)NC2c1cc(F)ccc1Cl` (stereo not shown) [Compound I-773], no more than 100 nM; to `N#CCc1cc(NC(=O)N2C[C@@](O)(C(F)(F)F)c3cc(F)ccc32)c2c(c1)C(=O)N[C@@H]2c1cc(F)ccc1Cl` (single isomer, unassigned) [Compound I-2626], 500 to 1000 nM.
The same measure for `O=C(Nc1cccc2c1C(C1CCCC(O)C1)NC2=O)c1cc(F)cc(C(F)(F)F)c1` (mixture of isomers) [Compound I-2226]: 10000 to 100000 nM; for `COc1ccccc1C(=O)Nc1cc(Br)cc2c1C(c1cc(F)ccc1Cl)NC2=O` (stereo not shown) [Compound I-471]: 10000 to 100000 nM; for `O=C(Nc1cc(-c2ccc3ncnn3c2)cc2c1[C@@H](c1cc(F)ccc1Cl)NC2=O)c1cc(F)cc(C(F)F)c1` (stereo in doubt) [Compound I-1172]: 10000 to 100000 nM.

The values are drawn from patent publication US12581252B2, “Substituted pyrrolo[3,4-b]pyridines as PI3K-α inhibitors” (Relay Therapeutics, Inc., priority 2020, dated 2026).
